Measured values reported in PMC10011747, “Targeting androgen receptor and the variants by an orally bioavailable Proteolysis Targeting Chimeras compound in castration resistant prostate cancer” (eBioMedicine, 2023).
Like-named read-outs stand apart in the source and are kept apart here.

Legend:
[1] = system: full-length AR; assay: AR degradation by western blot in prostate cancer cell lines; assay type: cell-based, human; settings: for sustainability of AR and AR-V(ΔLBD) degradation after drug washout: 10 μM for 24 h then washout, LNCaP, CWR22Rv1, VCaP; for AR degradation: CWR22Rv1 cells (Table S1); for DC50: 24 h treatment; for AR Dmax CWR22Rv1 / AR Dmax VCaP: maximum degradation at 20 μM
Description: To obtain total lysates, cells were lysed in RIPA buffer (50 mM Tris–HCl pH 8.0, 150 mM NaCl, 1% NP-40, 0.5% Na-deoxycholate, 0.5% SDS plus protease inhibitors). The lysates were resolved by SDS-polyacrylamide gel electrophoresis, and the protein expression was analyzed by western blotting using primary antibodies against AR (Millipore Cat# 06-680, RRID:AB_310214), AR-V7 (RevMAb Biosciences Cat# 31-1109-00, RRID:AB_2716436), GAPDH (Cell Signaling Technology Cat# 2118, RRID:AB_561053) and Actin (Sigma–Aldrich Cat# A5441, RRID:AB_476744). pLenti4/TO/Flag-AR or pLenti4/TO/Flag-TC-AR plasmid was co-transfected with HA-ubiquitin plasmid into 293T cells. 24 h after transfection, the cells were treated with 10 μM of the PROTAC compounds for 16 h, followed by 4-h treatment of 5 μM MG132. The cells were lysed with lysis buffer (50 mM Tris–HCl pH7.5, 150 mM NaCl, 0. 5% Triton X-100, 10% glycerol, 1 mM EDTA plus protease inhibitors) containing 1 ng/mL of N-ethylmaleimide, followed by immunoprecipitation with anti-Flag M2 (Sigma–Aldrich Cat# F3165, RRID:AB_259529) antibody. The ubiquitinated AR was then detected by western blotting using anti-HA (Sigma–Aldrich Cat# H3663, RRID:AB_262051) antibody.
Fig. 1 PROTAC-based AR degraders ITRI-90, ITRI-125 and ITRI-126 reduce AR and AR-V7 proteins in prostate cancer cell lines. (a) Chemical structure of the PROTAC AR degraders. (b) Representative western blots of AR protein levels in LNCaP, CWR22Rv1 and VCaP cells treated with the PROTAC degraders for 24 h. AR was detected by N-terminal antibody which also detects C-terminal truncated AR-V(ΔLBD) in CWR22Rv1 cells. AR-V7 specific antibody was used for AR-V7 detection. 4%–12% gradient gel was used to separate different species of AR-V(ΔLBD) near 75 kDa in CWR22Rv1 cell lysates. DC50 indicating the concentration required to achieve 50% degradation, was calculated based on normalized full-length AR and AR-V7 band intensity. Dmax is the maximum degradation achieved at 20 μM compound treatment. TEXT PRINTED IN THE PICTURE: (a) ITRI-90: AR DC50 (μM) LNCaP: 2.12 ± 0.93; AR DC50 (μM) CWR22Rv1: 5.73 ± 2.28; AR DC50 (μM) VCaP: 8.67 ± 4.87; AR-V7 DC50 (μM) CWR22Rv1: 4.72 ± 2.52; AR-V7 DC50 (μM) VCaP: 0.29 ± 0.15; AR Dmax (%) LNCaP: 88; AR Dmax (%) CWR22Rv1: 98; AR Dmax (%) VCaP: 90; AR-V7 Dmax (%) CWR22Rv1: 100; AR-V7 Dmax (%) VCaP: 63 | (a) ITRI-125: AR DC50 (μM) LNCaP: 6.10 ± 4.43; AR DC50 (μM) CWR22Rv1: 6.64 ± 1.87; AR DC50 (μM) VCaP: 9.05 ± 3.75; AR-V7 DC50 (μM) CWR22Rv1: 1.89 ± 1.06; AR-V7 DC50 (μM) VCaP: 0.52 ± 0.37; AR Dmax (%) LNCaP: 71; AR Dmax (%) CWR22Rv1: 96; AR Dmax (%) VCaP: 85; AR-V7 Dmax (%) CWR22Rv1: 99; AR-V7 Dmax (%) VCaP: 67 | (a) ITRI-126: AR DC50 (μM) LNCaP: 3.41 ± 3.13; AR DC50 (μM) CWR22Rv1: 0.11 ± 0.02; AR DC50 (μM) VCaP: 0.851 ± 0.43; AR-V7 DC50 (μM) CWR22Rv1: 0.011 ± 0.003; AR-V7 DC50 (μM) VCaP: 0.43 ± 0.19; AR Dmax (%) LNCaP: 99; AR Dmax (%) CWR22Rv1: 74; AR Dmax (%) VCaP: 94; AR-V7 Dmax (%) CWR22Rv1: 91; AR-V7 Dmax (%) VCaP: 82

[2] = Pharmacokinetic analysis in BALB/c mice; assay type: in vivo, mouse; settings: for bioavailability: read-out: BA (bioavailability); for clearance: read-out: plasma clearance rate
Description: Six to eight-week-old male BALB/c (BALB/cAnNCrlBltw) mice weighing between 22 and 30 g were purchased from BioLASCO Taiwan Co., Ilan, Taiwan. In vivo PK analysis of the PROTAC compounds was performed with 2 mg/kg for intravenous injection (IV, n = 2), 10 mg/kg for intraperitoneal injection (IP, n = 3), and 10 or 30 mg/kg for oral (PO, n = 3) dosing route. Blood samples from the mice were collected using Microvette® CB 300 EDTA blood collection tubes by a lancet at 0.167 h (IV only), 0.5, 1, 2, 4, 7 and 24 h time points. The plasma was then subjected to LC-MS analysis to quantitate the drug concentration against calibration curves that were established with drug standards prepared in mice plasma.

[3] = system: LNCaP, CWR22Rv1 and VCaP cells; assay: alamarBlue cell viability, all three cell lines; assay type: cell-based; settings: Homo sapiens, 168 h; 7 days treatment; read-out: IC50 cell viability, range in all three cell lines
Description: (§1) Cells were seeded in triplicate in 96-well plates 1 day prior to drug treatment for all assays. For viability test and IC50 assessment, the alamarBlue™ Cell Viability Reagent (Thermo Fisher Scientific) was added to cells 7 days after PROTAC treatment, followed by fluorescence detection as the manufacturer instructed. The IC50 was calculated by dose-inhibition regression. For proliferation monitoring, 2, 4, 6 and 8 days after PROTAC treatment (day 0), viable cells were detected by MTT Cell Proliferation Kit I (Sigma–Aldrich) according to the manufacturer's instructions. Cellular caspase activity was measured by Caspase-Glo 3/7 Assay System (Promega) 1 or 2 days after the drug treatment.

[4] = system: VCaP cells; assay: alamarBlue cell viability, VCaP; assay type: cell-based; settings: Homo sapiens, 168 h, 7 days treatment, normal hormone condition
Description: as §1

[5] = system: LNCaP cells; assay: alamarBlue cell viability, LNCaP; assay type: cell-based; settings: Homo sapiens, 168 h, 7 days treatment, normal hormone condition
Description: as §1

[6] = CWR22Rv1 cells, read-out: AR DC50 CWR22Rv1
[7] = VCaP cells, read-out: AR DC50 VCaP
[8] = male, BALB/c, mouse, plasma, IP, 10 mg/kg
[9] = male, BALB/c, mouse, plasma, PO, 30 mg/kg
[10] = male, BALB/c, mouse, plasma, intravenous, 2 mg/kg
[11] = male, BALB/c, mouse, plasma, ip, 10 mg/kg, 0-24 h
[12] = male, BALB/c, mouse, plasma, ip, 10 mg/kg, IP, 10 mg/kg, read-out: Cmax
[13] = male, BALB/c, mouse, plasma, PO, 10 mg/kg

Row | Compound | sustainability of AR and AR-V(ΔLBD) degradation after drug washout [1] | AR degradation [1] | DC50 [1, 6] | AR Dmax CWR22Rv1 ([1]; CWR22Rv1 cells) | DC50 [1, 7] | AR Dmax VCaP ([1]; VCaP cells) | Tmax [2, 8] | clearance [2, 10] | AUC(0-t) [2, 11] | Cmax [2, 12] | IC50 [3] | IC50 [4] | IC50 [5] | also measured
1 | Cc1ncsc1-c1ccc(CNC(=O)[C@@H]2C[C@H](O)CN2C(=O)[C@@H](NC(=O)COCCCCOc2ccc(C3CCN(C4=Nn5c(nnc5C(F)(F)F)CC4)CC3)cc2)C(C)(C)C)cc1 [ITRI-90, (2S,4S)-1-((S)-3,3-dimethyl-2-(2-(4-(4-(1-(3-(trifluoromethyl)-7,8-dihydro-[1,2,4]triazolo[4,3-b]pyridazin-6-yl)piperidin-4-yl)phenoxy)butoxy)acetamido)butanoyl)-4-hydroxy-N-(4-(4-methylthiazol-5-yl)benzyl)pyrrolidine-2-carboxamide] | sustain low protein levels up to 24 h after drug washout | 98.28% | 5.73 ± 2.28 µM | 98% | 8.67 ± 4.87 µM | 90% | 1.5 ± 0.7 h | 6.62 mL/min/kg | 25500 ± 13600 ng·h/mL | 3940 ± 1140 ng/mL | 3 to 6 µM | 5.45 ± 1.74 µM | 6.59 ± 3.13 µM | Cmax ([2]; PO, 30 mg/kg): 7056.67 ± 2594.81 ng/mL; AUC/Dose ([2]; PO, 30 mg/kg, 0-24 h): 600.13 ± 263.33 h⋅kg⋅ng/mL/mg; Tmax [2, 9]: 1.67 ± 0.58 h; bioavailability [2, 9]: 23%; AUC(0-t) ([2]; male, BALB/c, mouse, plasma, po, 30 mg/kg, 0-24 h): 18000 ng·h/mL; Cmax ([2]; male, BALB/c, mouse, plasma, po, 30 mg/kg, PO, 30 mg/kg, read-out: Cmax): 7060 ng/mL
2 | Cc1ncsc1-c1ccc(CNC(=O)[C@@H]2C[C@H](O)CN2C(=O)[C@@H](NC(=O)COCCCCCCOc2ccc(C3CCN(C4=Nn5c(nnc5C(F)(F)F)CC4)CC3)cc2)C(C)(C)C)cc1 [ITRI-125, (2S,4S)-1-((S)-3,3-dimethyl-2-(2-(6-(4-(1-(3-(trifluoromethyl)-7,8-dihydro-[1,2,4]triazolo[4,3-b]pyridazin-6-yl)piperidin-4-yl)phenoxy)hexyloxy)acetamido)butanoyl)-4-hydroxy-N-(4-(4-methylthiazol-5-yl)benzyl)pyrrolidine-2-carboxamide] | lost the degrading effects on both full-length and truncated AR within 8 h post drug removal | 92.53% | 6.64 ± 1.87 µM | 96% | 9.05 ± 3.75 µM | 85% |  | 5.68 mL/min/kg |  |  | 3 to 6 µM | 3.06 ± 0.936 µM | 6.36 ± 2.1 µM | AUC/Dose ([2]; intravenous, 2 mg/kg): 2839.9 ± 36.7 ng·h/mL
3 | O=C1CCC(N2Cc3c(NC(=O)COCCCCOc4ccc(C5CCN(C6=Nn7c(nnc7C(F)(F)F)CC6)CC5)cc4)cccc3C2=O)C(=O)N1 (stereo not drawn) [ITRI-126, N-(2-(2,6-dioxopiperidin-3-yl)-1-oxoisoindolin-4-yl)-2-(4-(4-(1-(3-(trifluoromethyl)-7,8-dihydro-[1,2,4]triazolo[4,3-b]pyridazin-6-yl)piperidin-4-yl)phenoxy)butoxy)acetamide] | sustain low protein levels up to 24 h after drug washout |  | 0.11 ± 0.02 µM | 74% | 0.851 ± 0.43 µM | 94% | 1.5 ± 0.5 h | 24.7 mL/min/kg | 2340 ± 263 ng·h/mL | 706 ± 222 ng/mL | 0.07 to 0.4 µM | 0.448 ± 0.154 µM | 0.464 ± 0.093 µM | AUC/Dose ([2]; IP, 10 mg/kg, 0-24 h): 234.2 ± 26.3 h⋅kg⋅ng/mL/mg; AUC/Dose ([2]; PO, 10 mg/kg, 0-24 h): 20.4 ± 8.6 h⋅kg⋅ng/mL/mg; Tmax [2, 13]: 0.7 ± 0.2 h; bioavailability [2, 13]: 4.6 ± 1.9%; AUC(0-t) ([2]; male, BALB/c, mouse, plasma, po, 10 mg/kg, 0-24 h): 204 ± 85.9 ng·h/mL; Cmax ([2]; male, BALB/c, mouse, plasma, po, 10 mg/kg, PO, 10 mg/kg, read-out: Cmax): 95.7 ± 47.1 ng/mL
